Test results: ChEMBL document CHEMBL1201862, “PubChem BioAssay data set” (2004)
One block for each compound: values may come before it. Calls of active or inactive are those of the source.

Assays:
[1] = target: Lysine-specific demethylase 4A (Homo sapiens, UniProt O75164); assay: JMJD2A histone demethylase inhibitors, dose response, selectivity assay for GASC-1 inhibitor project, biochemical, DELFIA europium, cherry-picked samples (AID 488840)
[2] = target: Lysine-specific demethylase 4C (Homo sapiens, UniProt Q9H3R0); assay: GASC-1 (JMJD2C) histone demethylase inhibitors, dose response, biochemical, DELFIA europium, cherry-picked samples (AID 488835); assay type: functional
Lysine-specific demethylase 4C, sequence (Q9H3R0 whole entry): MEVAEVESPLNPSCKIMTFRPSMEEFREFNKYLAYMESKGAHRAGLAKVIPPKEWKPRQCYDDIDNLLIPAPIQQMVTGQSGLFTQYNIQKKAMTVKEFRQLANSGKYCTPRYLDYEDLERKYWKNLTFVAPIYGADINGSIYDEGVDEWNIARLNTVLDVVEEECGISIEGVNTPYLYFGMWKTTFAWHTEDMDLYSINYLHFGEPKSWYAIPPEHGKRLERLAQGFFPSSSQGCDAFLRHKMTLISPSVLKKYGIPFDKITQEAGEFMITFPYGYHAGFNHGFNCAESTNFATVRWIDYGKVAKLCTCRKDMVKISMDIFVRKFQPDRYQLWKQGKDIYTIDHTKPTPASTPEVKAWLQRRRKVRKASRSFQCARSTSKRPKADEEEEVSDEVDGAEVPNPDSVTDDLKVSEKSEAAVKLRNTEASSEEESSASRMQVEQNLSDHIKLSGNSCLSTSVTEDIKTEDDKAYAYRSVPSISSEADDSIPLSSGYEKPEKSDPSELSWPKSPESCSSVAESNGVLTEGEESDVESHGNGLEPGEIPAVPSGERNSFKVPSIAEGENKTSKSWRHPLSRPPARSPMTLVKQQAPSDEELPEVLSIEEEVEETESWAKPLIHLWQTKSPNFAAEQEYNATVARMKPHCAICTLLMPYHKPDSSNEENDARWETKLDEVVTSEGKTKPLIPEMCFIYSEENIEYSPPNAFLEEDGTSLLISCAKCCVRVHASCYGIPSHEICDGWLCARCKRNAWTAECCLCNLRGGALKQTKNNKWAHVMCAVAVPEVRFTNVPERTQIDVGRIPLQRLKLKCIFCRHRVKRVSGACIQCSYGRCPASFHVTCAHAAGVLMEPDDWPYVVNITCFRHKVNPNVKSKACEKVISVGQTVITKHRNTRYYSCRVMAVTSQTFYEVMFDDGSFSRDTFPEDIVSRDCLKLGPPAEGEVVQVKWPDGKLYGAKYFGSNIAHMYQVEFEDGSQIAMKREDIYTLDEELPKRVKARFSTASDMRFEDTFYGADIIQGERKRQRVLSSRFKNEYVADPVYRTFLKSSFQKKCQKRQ

[3] = AlphaScreen signal interference compounds, dose response, artefact control for ARNT-TACC3 interaction inhibitor project, biochemical, luminescence, cherry-pick (AID 651705); assay type: functional;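 note: AlphaScreen bead proximity signal that flags compounds interfering with the detection technology; potency reflects signal decrease which marks the compound as an assay artifact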
[4] = Luminescence Cell-Based Dose Retest to Confirm Inhibitors of Cancer Stem Cells. [Related pubchem assays (depositor defined):AID2717, AID2721]; assay type: functional; conditions: Homo sapiens
[5] = cytotoxicity in HMLE control line with eGFP shRNA, dose response, counter-screen for HMLE_sh_ECad selective toxicity project, cell-based, HMLE_sh_eGFP, luminescence (AID 463074); assay type: functional, Homo sapiens;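 note: HMLE human mammary epithelial cells expressing control shRNA against eGFP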
[6] = target: T1, Intestinal-type alkaline phosphatase (Homo sapiens, UniProt P09923); assay: human IAP inhibitors, dose response, biochemical, luminescent, uHTS hits, set 2 (AID 488793); assay type: functional
T1 sequence (P09923 whole entry): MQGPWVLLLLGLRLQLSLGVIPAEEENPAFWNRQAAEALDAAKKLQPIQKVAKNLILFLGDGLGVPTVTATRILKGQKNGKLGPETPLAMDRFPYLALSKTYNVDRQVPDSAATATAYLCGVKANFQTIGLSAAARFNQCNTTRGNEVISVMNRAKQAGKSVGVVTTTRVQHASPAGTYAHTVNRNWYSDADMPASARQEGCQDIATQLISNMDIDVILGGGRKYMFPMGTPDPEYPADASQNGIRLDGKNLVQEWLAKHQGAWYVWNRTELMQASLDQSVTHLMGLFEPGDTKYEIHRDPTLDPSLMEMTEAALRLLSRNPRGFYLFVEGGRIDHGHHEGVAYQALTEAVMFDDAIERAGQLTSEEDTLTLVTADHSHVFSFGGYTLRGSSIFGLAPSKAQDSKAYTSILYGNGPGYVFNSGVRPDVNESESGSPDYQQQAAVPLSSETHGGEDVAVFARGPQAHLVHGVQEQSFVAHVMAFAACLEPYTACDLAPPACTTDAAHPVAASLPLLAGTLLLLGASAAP

[7] = target: T1, Intestinal-type alkaline phosphatase; assay: Dose Response confirmation of uHTS hits from a small molecule inhibitors of human intestinal alkaline phosphatase via a luminescent assay. [Related pubchem assays (depositor defined):AID2544, AID2574]; assay type: functional
[8] = target: Intestinal-type alkaline phosphatase (Mus musculus, UniProt P24822); assay: PubChem AID 488875; assay type: functional
Intestinal-type alkaline phosphatase (Mus musculus, UniProt P24822), sequence (P24822 whole entry): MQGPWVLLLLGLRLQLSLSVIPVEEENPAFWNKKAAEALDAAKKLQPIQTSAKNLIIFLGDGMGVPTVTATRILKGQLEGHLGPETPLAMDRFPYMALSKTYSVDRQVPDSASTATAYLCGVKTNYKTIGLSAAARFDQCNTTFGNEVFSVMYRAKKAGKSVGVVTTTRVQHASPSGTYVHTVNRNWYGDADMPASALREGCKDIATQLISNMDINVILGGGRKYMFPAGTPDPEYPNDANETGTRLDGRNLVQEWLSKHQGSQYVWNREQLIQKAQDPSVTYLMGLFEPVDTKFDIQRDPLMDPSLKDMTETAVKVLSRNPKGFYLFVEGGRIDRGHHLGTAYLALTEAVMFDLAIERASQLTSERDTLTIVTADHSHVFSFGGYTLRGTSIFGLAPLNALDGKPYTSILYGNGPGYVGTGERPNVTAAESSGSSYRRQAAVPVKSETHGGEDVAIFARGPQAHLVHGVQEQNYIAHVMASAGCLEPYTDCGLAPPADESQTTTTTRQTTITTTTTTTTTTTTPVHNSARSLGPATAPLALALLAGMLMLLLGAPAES

[9] = target: T2, Alkaline phosphatase, tissue-nonspecific isozyme (Homo sapiens, UniProt P05186); assay: inhibition of tissue-nonspecific alkaline phosphatase – biochemical, dose response (AID 488882); assay type: functional
T2 sequence (P05186 whole entry): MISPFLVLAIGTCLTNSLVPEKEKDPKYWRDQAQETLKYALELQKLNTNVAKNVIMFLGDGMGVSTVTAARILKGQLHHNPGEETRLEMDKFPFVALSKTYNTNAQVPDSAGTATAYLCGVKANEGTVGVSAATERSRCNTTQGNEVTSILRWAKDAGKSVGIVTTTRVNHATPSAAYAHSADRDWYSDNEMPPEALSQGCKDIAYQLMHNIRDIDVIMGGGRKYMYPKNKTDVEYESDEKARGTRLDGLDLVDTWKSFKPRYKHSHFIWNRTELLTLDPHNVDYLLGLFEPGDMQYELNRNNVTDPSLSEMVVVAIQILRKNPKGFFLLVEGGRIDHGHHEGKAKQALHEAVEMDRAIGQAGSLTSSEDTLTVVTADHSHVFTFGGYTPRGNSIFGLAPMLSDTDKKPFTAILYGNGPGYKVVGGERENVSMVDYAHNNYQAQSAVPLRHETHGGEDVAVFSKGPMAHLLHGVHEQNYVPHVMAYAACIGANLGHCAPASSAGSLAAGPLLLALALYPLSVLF

Exodeoxyribonuclease V = Exodeoxyribonuclease V (Escherichia coli (strain K12), UniProt P04993+P07648+P08394); assay: E. coli RecBCD inhibitors, dose response, counter-screen for AddAB inhibitor project, absorbance, V66 E. coli, mutant T4 phage (AID 492957); assay type: functional, cell-based, Escherichia coli str. K-12 substr. MG1655
Bcl-2-related protein A1 = target: T3, Bcl-2-related protein A1 (Mus musculus, UniProt Q07440); assay type: functional;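 note: confirmatory dose–response counterscreen on Bfl-1, used to check hits from a UBC13 polyubiquitin inhibitor campaign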
T3 sequence (Q07440 whole entry): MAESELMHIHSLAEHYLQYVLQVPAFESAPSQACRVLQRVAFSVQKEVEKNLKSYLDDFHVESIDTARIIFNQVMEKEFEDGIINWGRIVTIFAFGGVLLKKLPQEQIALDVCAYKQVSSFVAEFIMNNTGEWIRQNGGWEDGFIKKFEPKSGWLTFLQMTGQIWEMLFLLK

[10] = target: T4, Ubiquitin-conjugating enzyme E2 N (Homo sapiens, UniProt P61088); assay type: functional
T4 sequence (P61088 whole entry): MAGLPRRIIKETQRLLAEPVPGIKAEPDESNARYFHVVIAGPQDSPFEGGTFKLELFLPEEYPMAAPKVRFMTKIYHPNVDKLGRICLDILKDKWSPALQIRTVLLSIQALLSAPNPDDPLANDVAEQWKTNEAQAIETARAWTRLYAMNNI

[11] = target: T4, Ubiquitin-conjugating enzyme E2 N; assay type: functional; remark: listed apart in the source
[12] = Counterscreen for AddAB inhibitors: absorbance-based bacterial cell-based high throughput dose response assay for inhibitors of bacterial viability. [Related pubchem assays (depositor defined):AID435030, AID449728, AID449731, AID488942, AID488955, AID488956]; assay type: functional
INS1 = assay: beta cell apoptosis inhibitors, cytokine rescue, dose response, luminescence, retest (AID 449756); assay type: functional, cell-based; conditions: Rattus norvegicus;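 note: cell death triggered by IL-1 beta plus TNF-alpha plus IFN-gamma mixture; protective hits raise ATP signal compared with cytokine alone wells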
Cytochrome P450 2D6 [13] = target: T5, Cytochrome P450 2D6 (Homo sapiens, UniProt P10635);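 note: CYP2D6 member of a cytochrome P450 panel assay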
T5 sequence (P10635 whole entry): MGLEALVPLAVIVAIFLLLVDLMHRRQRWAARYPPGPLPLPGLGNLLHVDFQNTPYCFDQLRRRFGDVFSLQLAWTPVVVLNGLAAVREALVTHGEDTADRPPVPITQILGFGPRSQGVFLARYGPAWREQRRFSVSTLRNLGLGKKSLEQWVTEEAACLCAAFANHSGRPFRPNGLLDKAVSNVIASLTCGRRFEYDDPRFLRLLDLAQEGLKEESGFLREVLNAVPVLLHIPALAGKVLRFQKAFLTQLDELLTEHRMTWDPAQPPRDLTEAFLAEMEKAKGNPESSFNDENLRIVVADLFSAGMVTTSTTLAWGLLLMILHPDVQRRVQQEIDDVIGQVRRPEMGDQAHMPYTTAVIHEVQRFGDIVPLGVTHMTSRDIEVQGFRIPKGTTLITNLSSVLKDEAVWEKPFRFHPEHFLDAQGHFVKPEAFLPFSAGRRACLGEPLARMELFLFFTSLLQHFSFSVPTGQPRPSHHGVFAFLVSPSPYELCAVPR

Cytochrome P450 2D6 [14] = target: T5, Cytochrome P450 2D6; remark: listed apart in the source

Lysine-specific demethylase 4A, sequence (O75164 whole entry): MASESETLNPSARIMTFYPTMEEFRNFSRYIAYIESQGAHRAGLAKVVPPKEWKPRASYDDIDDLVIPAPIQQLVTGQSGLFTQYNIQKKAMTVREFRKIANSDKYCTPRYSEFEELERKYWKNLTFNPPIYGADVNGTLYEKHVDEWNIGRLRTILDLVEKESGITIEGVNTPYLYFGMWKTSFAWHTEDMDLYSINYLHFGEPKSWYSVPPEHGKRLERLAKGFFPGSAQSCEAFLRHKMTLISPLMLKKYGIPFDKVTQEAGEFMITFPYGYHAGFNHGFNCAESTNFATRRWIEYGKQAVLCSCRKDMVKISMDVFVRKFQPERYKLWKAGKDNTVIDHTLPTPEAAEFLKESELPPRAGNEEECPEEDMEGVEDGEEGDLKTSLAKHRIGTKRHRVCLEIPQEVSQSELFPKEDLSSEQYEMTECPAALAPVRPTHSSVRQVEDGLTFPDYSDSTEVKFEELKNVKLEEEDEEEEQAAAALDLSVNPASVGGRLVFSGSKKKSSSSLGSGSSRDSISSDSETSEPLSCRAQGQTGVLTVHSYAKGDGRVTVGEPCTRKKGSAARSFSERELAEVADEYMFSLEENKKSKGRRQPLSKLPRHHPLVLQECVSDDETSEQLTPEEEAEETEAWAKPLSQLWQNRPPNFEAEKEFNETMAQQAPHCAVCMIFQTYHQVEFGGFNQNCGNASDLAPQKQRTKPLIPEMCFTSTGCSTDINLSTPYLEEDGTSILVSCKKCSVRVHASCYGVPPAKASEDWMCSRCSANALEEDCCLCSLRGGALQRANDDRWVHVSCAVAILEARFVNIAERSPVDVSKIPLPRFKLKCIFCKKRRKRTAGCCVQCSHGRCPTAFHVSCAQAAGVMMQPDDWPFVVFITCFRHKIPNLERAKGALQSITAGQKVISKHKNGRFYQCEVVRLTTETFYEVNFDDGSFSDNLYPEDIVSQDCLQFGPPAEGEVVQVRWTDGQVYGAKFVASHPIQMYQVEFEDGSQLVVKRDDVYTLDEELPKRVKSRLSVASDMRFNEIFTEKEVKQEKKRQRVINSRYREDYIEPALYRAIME

- AC50 [1]: 13.9 µM (active)
- AC50 [2]: 14.7 µM (active)
SMILES: O=C(Nc1nnc(-c2ccco2)o1)c1ccc(N2C(=O)CCC2=O)cc1
- AC50 [3]: 126 µM (active)

SMILES: COc1ccc(-c2ccc3oc(-c4ccc(OC)cc4)c(C#CC4(O)CCCCC4)c3c2)cc1
- AC50 [4]: 5.32 µM (active)
- AC50 [5]: 29.8 µM (active)

- IC50 [6]: 58.5 µM (active)
- IC50 [7]: 10.5 µM (inactive)
- EC50 [8]: > 100 µM (inactive)
- IC50 [9]: 32.7 µM (active)
SMILES: O=C(O)c1ccccc1C(=O)Nc1cc(-c2ccccc2)n[nH]1

SMILES: CCC[C@@H](CN1CCC[C@H]1CN1C(N)=NC[C@@H]1Cc1ccccc1)N1C[C@@H]([C@H](C)CC)N(CCCC2CCCC2)C1=N
- IC50 (Exodeoxyribonuclease V): 15.2 µM (inactive)
- IC50 (Bcl-2-related protein A1): > 20 µM (inactive)
- IC50 [10]: 10.9 µM (active)
- IC50 [11]: 8.52 µM (active)
- IC50 [12]: 17.5 µM (inactive)
- AC50 (INS1): 7.33 µM (active)

SMILES: CC(C)(C)c1o[nH]c(=O)c1C[C@H](N)C(=O)O
- AC50 (Cytochrome P450 2D6 [13]): 1.58 µM (inconclusive)
- AC50 (Cytochrome P450 2D6 [14]): inconclusive
